Laboratory results published in patent publication US12569658B2, “Intranasal and olfactory delivery devices and methods of use” (Rocket Science Health Corp., priority 2023, dated 2026).

Assay: Lateralized olfactory delivery of oxytocin via cannula into the right nostril; brain distribution by mass spectrometry imaging (MSI)
Format: in vivo, Sprague-Dawley male rats
Settings: for Blue Pixel Count (intensity corresponding to oxytocin): 30 mg/kg, 25 μL into right nostril, 2 hours, pixels with B-value exceeding 180
Protocol: Sprague-Dawley male rats (150˜250 g) n=3 per time point×2 time points were used in this study. Animals were fasted per facility protocols (free access to water). Sedation by 50 mg/kg pentobarbital or equivalent procedure and maintenance with isoflurane. Test article administration: The animal is kept supine with the head kept at an angle to minimize movement of the olfactory plane above zero degrees (to prevent gravity drainage into the olfactory cleft). In this study Oxytocin (30 mg/kg) was delivered via the canulated olfactory delivery model which is: a 0.699 mm diameter cannula with lipophilic ointment spread on the catheter which is carefully inserted into the right nostril with a minimal angle of 20° to the target of the correct meatus. The left nostril is occluded with a non-toxic quick setting compound to prevent cross contamination. During insertion the catheter is rotated gently to advance it through the tight nasal cavity. Once the catheter reaches the ethmoid turbinate it cannot be advance gently anymore (˜15 mm). 25 μL of oxytocin is slowly instilled in the olfactory region (FIGS. 23A-B). The animals were kept sedated for 2 hours. After 2 hours, the animals were humanely euthanized by cervical dislocation. Sample collection: Olfactory bulb and brain: Rats olfactory bulb and brain were collected and snap-freeze in liquid nitrogen. The tissue was stored at −80 C until analysis. Sample Preparation: Olfactory bulb and brain samples was homogenized with ice-cold phosphate buffer saline (pH 7.4) at a ratio of 4 (buffer): 1 (tissue) (v/w). An aliquot of 20 μL homogenate was spiked into 1.5 mL tube, and 100 μL of acetonitrile containing internal standard were added for protein precipitation. The mixture was vortexed, centrifuged at 14000 rpm for 5 min. 80 μL supernatant was transferred into a 96 well plate, and 240 μL of sterile deionized water was added, the mixture was vortexed and injected for LC-MS/MS analysis.
Sample analysis: Test compound in olfactory bulb, brain, and plasma samples will be analyzed by LC/MS/MS. Calibration curve was constructed in blank olfactory bulb homogenate. Using a High-throughput RapifleX MALDI-TOF/TOF mass spectrometer the samples were analyzed utilizing non-labeled detection technologies. This is important as this technique explores the regional distribution patterns of target molecule (FIG. 24). The frozen section of brain tissue was cut into 12 μm sections. Oxytocin at 200, […], 50, 20, 10, 5, 2 ng were used as standard in blank brain slide. And substrate were sprayed on the slides. The sample of the tissue section was ionized and desorbed with the substrate under the excitation of the laser beam. The released ions were identified with mass spectrometer. The detection levels were 2.68 ng/mm^2 (FIGS. 25A-D). To visualize the lateralized drug transfer through the brain the brain was sectioned into olfactory bulb, striatum and cerebrum sections (FIG. 26) and imaged with the Mass Spectrometry Imaging (MSI) system.
The images shown in FIGS. 27A-C were analyzed to estimate the relative concentration of oxytocin on each side of the brain. Image data was converted into a standard RGB color-map, with each of the red (R), green (G), and blue (B) values taking a value between 0 and 255. Pixels with B-values exceeding 180 were counted on each side of the brain, yielding the results in Table 1.

ratio of blue pixels, targeted over untargeted half of the brain (Cerebrum, 921/638): 1.44
Blue Pixel Count (intensity corresponding to oxytocin) (Cerebrum, Left hemisphere (untargeted)): 638
Blue Pixel Count (intensity corresponding to oxytocin) (Cerebrum, Right hemisphere (targeted)): 921
ratio of blue pixels, targeted over untargeted half of the brain (Olfactory, 962/475): 2.03
Blue Pixel Count (intensity corresponding to oxytocin) (Olfactory, Left hemisphere (untargeted)): 475
Blue Pixel Count (intensity corresponding to oxytocin) (Olfactory, Right hemisphere (targeted)): 962
ratio of blue pixels, targeted over untargeted half of the brain (Striatum, 7055/4085): 1.73
Blue Pixel Count (intensity corresponding to oxytocin) (Striatum, Left hemisphere (untargeted)): 4085
Blue Pixel Count (intensity corresponding to oxytocin) (Striatum, Right hemisphere (targeted)): 7055
excess drug concentration on the targeted side of the brain (across the three studied regions (Cerebrum, Olfactory, Striatum)): 44-103%
distribution of oxytocin by MSI (FIG. 27A) (olfactory bulb slice): preferential right side distribution
SMILES: CC[C@H](C)[C@@H]1NC(=O)[C@H](Cc2ccc(O)cc2)NC(=O)[C@@H](N)CSSC[C@@H](C(=O)N2CCC[C@H]2C(=O)N[C@@H](CC(C)C)C(=O)NCC(N)=O)NC(=O)[C@H](CC(N)=O)NC(=O)[C@H](CCC(N)=O)NC1=O [oxytocin, Oxytocin]
distribution of oxytocin by MSI (FIG. 27C) (cerebrum slice): lateralization coinciding with the targeted (right) hemisphere
distribution of oxytocin by MSI (FIG. 27B) (striatum slice): continued preferential right side distribution
